“And” between values parts separate entries of the source, which are not always exact repeats. Equal entries are not always repeated.
How the values were obtained:
[1] = target: human Cereblon WT GST-tagged protein (Homo sapiens (Human), UniProt Q96SW2); experiment: CRBN-binding affinity, HTRF (CEREBLON BINDING kit)
Procedure, shortened: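 HTRF competition readout: compounds compete with a thalidomide-Re conjugate for GST-tagged wild-type human CRBN detected via Eu-labelled anti-GST antibody. Inhibition rate derived relative to protein-free blank wells.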

[2] = target: IKZF1 protein (Homo sapiens (Human), UniProt Q13422+Q96SW2); experiment: Western-blot assay of substrate protein degradation in hPBMC, IKZF1; assay type: cell-based; settings: hPBMC cells, compound 500 nM, 24 hours, Western blot
IKZF1 protein, sequence (Q13422 whole entry): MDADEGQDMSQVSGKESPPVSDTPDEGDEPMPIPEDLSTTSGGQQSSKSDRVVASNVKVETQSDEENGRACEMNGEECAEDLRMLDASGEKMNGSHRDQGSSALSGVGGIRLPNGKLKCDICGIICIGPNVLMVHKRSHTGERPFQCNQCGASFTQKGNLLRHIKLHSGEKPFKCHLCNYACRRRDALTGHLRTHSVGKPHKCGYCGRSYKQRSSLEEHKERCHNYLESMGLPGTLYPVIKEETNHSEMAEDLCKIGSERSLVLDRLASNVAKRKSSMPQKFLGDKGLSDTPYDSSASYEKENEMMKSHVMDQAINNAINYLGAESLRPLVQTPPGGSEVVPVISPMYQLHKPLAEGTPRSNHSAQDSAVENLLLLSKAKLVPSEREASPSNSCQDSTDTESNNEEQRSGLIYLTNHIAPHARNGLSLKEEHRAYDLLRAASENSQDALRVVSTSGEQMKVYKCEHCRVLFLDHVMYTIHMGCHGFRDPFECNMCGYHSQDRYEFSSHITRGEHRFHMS
IKZF1 protein, sequence (Q96SW2 whole entry): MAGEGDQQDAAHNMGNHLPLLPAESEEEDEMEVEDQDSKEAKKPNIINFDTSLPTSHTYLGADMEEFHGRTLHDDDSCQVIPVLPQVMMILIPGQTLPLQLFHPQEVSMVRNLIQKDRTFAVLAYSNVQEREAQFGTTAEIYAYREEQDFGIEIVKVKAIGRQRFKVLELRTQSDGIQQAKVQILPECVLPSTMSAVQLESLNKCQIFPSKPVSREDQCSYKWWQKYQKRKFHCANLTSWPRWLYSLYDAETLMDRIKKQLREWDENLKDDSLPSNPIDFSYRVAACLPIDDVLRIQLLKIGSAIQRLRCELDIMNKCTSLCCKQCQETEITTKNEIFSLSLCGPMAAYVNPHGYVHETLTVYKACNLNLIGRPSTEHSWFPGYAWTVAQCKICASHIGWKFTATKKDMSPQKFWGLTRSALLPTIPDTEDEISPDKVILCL
IKZF1 protein, sequence (Q16531 whole entry partner): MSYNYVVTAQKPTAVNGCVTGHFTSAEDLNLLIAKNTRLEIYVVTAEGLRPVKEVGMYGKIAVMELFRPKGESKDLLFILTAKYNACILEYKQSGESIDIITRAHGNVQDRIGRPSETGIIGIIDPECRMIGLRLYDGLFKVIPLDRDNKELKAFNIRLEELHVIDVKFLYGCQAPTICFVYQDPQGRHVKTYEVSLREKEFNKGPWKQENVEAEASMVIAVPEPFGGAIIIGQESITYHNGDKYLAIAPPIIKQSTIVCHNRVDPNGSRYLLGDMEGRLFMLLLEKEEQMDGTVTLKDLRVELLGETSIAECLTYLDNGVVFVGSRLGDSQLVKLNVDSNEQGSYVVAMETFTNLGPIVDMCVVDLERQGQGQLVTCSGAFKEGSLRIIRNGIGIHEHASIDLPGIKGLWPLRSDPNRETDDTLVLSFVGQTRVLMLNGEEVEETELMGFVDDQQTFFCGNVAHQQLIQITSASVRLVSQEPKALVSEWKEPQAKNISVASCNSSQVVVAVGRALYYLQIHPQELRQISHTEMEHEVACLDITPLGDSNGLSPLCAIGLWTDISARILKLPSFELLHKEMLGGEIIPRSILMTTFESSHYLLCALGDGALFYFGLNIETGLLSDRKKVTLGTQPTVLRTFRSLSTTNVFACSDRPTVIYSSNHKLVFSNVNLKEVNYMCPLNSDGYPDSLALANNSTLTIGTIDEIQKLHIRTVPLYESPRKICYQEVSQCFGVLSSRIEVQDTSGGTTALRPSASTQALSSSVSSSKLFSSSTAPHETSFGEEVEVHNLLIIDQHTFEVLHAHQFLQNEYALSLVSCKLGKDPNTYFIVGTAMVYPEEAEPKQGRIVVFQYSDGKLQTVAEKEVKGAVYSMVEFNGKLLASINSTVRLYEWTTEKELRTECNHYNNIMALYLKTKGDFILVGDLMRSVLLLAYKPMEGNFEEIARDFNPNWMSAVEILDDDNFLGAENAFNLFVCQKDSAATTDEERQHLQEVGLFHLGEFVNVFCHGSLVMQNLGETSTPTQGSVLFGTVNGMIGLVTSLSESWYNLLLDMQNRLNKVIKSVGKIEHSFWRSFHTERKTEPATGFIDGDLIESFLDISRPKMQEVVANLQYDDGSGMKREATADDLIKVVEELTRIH
Method: (§1) After treating the cells with the compounds for 24 hours, the cells were collected and lysed using RIPA protein lysate containing phosphatase inhibitors. The lysate was then placed on ice for 30-60 minutes and centrifuged. The supernatant was aspirated as the extracted total cell protein. The protein concentration of the supernatant was determined using the conventional BCA (Bicinchoninic Acid) assay. The supernatant was then mixed with 4×SDS sample loading buffer, denatured at 95° C. for 5 minutes, and then subjected to SDS-PAGE electrophoresis on a polyacrylamide gel, followed by transfer to a nitrocellulose membrane (NC membrane). The membrane was blocked with blocking buffer at room temperature for 1-2 hours, and then antibody incubation and detection were carried out according to the antibody instructions provided by Cell Signaling Technology.
(§2) Half-Maximal Degradation Concentration value (the drug concentration required for degrading proteins by 50%, abbreviated as DC50) reads method: comparing the gray values of the Western blotting bands for the drug treatment with the gray values of the Western blotting band for the DMSO control, and reading the drug concentration range corresponding to the gray value of the Western blotting bands for the drug treatment which is equal to half of the gray value of the Western blotting band for the DMSO control.
(§3) DC50 value could also be calculated as follows: using software ImageJ to quantify the gray values of the Western blotting bands for the drug treatment, fitting the relationship curve between drug concentrations and gray values, and from the fitted curve, calculating the drug concentration corresponding to half of the gray value of the Western blotting band for the DMSO control.

[3] = target: IKZF3 protein (Homo sapiens (Human), UniProt Q96SW2+Q9UKT9); experiment: Western-blot assay of substrate protein degradation in hPBMC, IKZF3; assay type: cell-based; settings: hPBMC cells, compound 500 nM, 24 hours, Western blot
IKZF3 protein, sequence (Q9UKT9 whole entry): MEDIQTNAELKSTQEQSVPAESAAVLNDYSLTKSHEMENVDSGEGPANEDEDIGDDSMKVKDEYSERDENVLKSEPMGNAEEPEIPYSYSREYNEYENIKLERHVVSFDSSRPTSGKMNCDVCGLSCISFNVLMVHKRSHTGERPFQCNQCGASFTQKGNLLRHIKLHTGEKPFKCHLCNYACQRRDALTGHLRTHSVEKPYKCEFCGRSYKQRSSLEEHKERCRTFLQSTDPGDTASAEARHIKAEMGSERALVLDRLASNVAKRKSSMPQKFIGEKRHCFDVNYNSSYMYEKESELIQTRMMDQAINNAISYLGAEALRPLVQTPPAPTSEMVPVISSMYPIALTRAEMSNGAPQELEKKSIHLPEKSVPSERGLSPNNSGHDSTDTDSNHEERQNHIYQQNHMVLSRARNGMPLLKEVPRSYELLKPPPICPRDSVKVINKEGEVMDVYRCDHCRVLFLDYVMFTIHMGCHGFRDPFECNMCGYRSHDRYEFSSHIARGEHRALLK
IKZF3 protein, sequence (Q96SW2 whole entry): as the sequence (Q96SW2 whole entry) above
IKZF3 protein, sequence (Q16531 whole entry partner): as the sequence (Q16531 whole entry partner) above
Method: as §1, §2, §3

[4] = target: GSPT1 protein (Homo sapiens (Human), UniProt P15170+Q96SW2); experiment: Western-blot assay of substrate protein degradation in hPBMC, GSPT1; assay type: cell-based; settings: hPBMC cells, compound 500 nM, 24 hours, Western blot
GSPT1 protein, sequence (P15170 whole entry): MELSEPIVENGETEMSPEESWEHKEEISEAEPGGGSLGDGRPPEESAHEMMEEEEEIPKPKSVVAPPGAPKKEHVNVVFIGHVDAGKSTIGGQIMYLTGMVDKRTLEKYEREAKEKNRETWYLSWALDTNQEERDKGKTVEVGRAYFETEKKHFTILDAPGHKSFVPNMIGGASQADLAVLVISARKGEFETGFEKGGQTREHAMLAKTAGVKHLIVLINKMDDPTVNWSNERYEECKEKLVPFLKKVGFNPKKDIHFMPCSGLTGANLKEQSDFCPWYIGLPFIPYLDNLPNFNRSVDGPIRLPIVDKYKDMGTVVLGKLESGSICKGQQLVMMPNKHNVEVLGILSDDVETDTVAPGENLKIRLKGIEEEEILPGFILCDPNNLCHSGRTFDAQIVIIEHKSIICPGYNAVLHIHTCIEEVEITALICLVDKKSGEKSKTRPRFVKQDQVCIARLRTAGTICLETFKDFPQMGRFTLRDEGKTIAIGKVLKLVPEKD
GSPT1 protein, sequence (Q96SW2 whole entry): as the sequence (Q96SW2 whole entry) above
GSPT1 protein, sequence (Q16531 whole entry partner): as the sequence (Q16531 whole entry partner) above
Method: as §1, §2, §3

human Cereblon WT GST-tagged protein, sequence (Q96SW2 whole entry): as the sequence (Q96SW2 whole entry) above

Compound: CC1(C)CCC(C(=O)N2CCC3(CC2)CN(C(=O)c2ccc4c(c2)CN(C2CCC(=O)NC2=O)C4=O)C3)=C(c2ccc(Cl)cc2)C1 (stereo not shown) [GT-05657, 3-(5-(7-(4′-chloro-5,5-dimethyl-3,4,5,6-tetrahydro-[1,1′-biphenyl]-2-carbonyl)-2,7-diazaspiro[3.5]nonane-2-carbonyl)-1-oxoisoindolin-2-yl)piperidine-2,6-dione]
- IC50 [1]: 1170 nM
- residual substrate protein level, IKZF1 [2]: B (B represents a residual substrate protein level of >50%)
- residual substrate protein level, IKZF3 [3]: B (B represents a residual substrate protein level of >50%)
- residual substrate protein level, GSPT1 [4]: B (B represents a residual substrate protein level of >50%)

Compound: O=C1CCC(N2Cc3cc(CN4CCN(Cc5cccc(-c6ccc[nH]6)c5)CC4)ccc3C2=O)C(=O)N1 (stereo not shown) [GT-05733, 3-(5-((4-(3-(1H-pyrrol-2-yl)benzyl)piperazin-1-yl)methyl)-1-oxoisoindolin-2-yl)piperidine-2,6-dione]
- IC50 [1]: 210 nM
- residual substrate protein level, IKZF1 [2]: B (B represents a residual substrate protein level of >50%)
- residual substrate protein level, IKZF3 [3]: A (A represents a residual substrate protein level of <50%)
- residual substrate protein level, GSPT1 [4]: A (A represents a residual substrate protein level of <50%)

Compound: O=C1CCC(N2Cc3cc(CN4CCCN(C(=O)c5ccccc5-c5ccc(Cl)cc5)CC4)ccc3C2=O)C(=O)N1 (stereo not shown) [GT-05644, 3-(5-((4-(4′-chloro-[1,1′-biphenyl]-2-carbonyl)-1,4-diazepan-1-yl)methyl)-1-oxoisoindolin-2-yl)piperidine-2,6-dione]
- IC50 [1]: 590 nM
- residual substrate protein level, IKZF1 [2]: B (B represents a residual substrate protein level of >50%)
- residual substrate protein level, IKZF3 [3]: B (B represents a residual substrate protein level of >50%)
- residual substrate protein level, GSPT1 [4]: A (A represents a residual substrate protein level of <50%)

Compound: CC1(C)CCC(CN2CC3CC(C2)N3Cc2ccc3c(c2)CN(C2CCC(=O)NC2=O)C3=O)=C(c2ccc(F)cc2)C1 (stereo not shown) [GT-05399, 3-(5-((3-((4′-fluoro-5,5-dimethyl-3,4,5,6-tetrahydro-[1,1′-biphenyl]-2-yl)methyl)-3,6-diazabicyclo[3.1.1]heptan-6-yl)methyl)-1-oxoisoindolin-2-yl)piperidine-2,6-dione]
- IC50 [1]: 430 nM
- residual substrate protein level, IKZF1 [2]: B (B represents a residual substrate protein level of >50%)
- residual substrate protein level, IKZF3 [3]: B (B represents a residual substrate protein level of >50%)
- residual substrate protein level, GSPT1 [4]: A (A represents a residual substrate protein level of <50%)

Compound: O=C1CCC(N2Cc3cc(CN4C5CC4CN(Cc4ccccc4-c4ccc(Cl)cc4)C5)ccc3C2=O)C(=O)N1 (stereo not shown) [GT-05607, 3-(5-((3-((4′-chloro-[1,1′-biphenyl]-2-yl)methyl)-3,6-diazabicyclo[3.1.1]heptan-6-yl)methyl)-1-oxoisoindolin-2-yl)piperidine-2,6-dione]
- IC50 [1]: 1150 nM and 880 nM
- residual substrate protein level, IKZF1 [2]: B (B represents a residual substrate protein level of >50%)
- residual substrate protein level, IKZF3 [3]: B (B represents a residual substrate protein level of >50%)
- residual substrate protein level, GSPT1 [4]: A (A represents a residual substrate protein level of <50%)

Compound: CC1(C)CCC(C(=O)N2CC3CCC2CN3Cc2ccc3c(c2)CN(C2CCC(=O)NC2=O)C3=O)=C(c2ccc(F)cc2)C1 (stereo not shown) [GT-05402, 3-(5-((5-(4′-fluoro-5,5-dimethyl-3,4,5,6-tetrahydro-[1,1′-biphenyl]-2-carbonyl)-2,5-diazabicyclo[2.2.2]octan-2-yl)methyl)-1-oxoisoindolin-2-yl)piperidine-2,6-dione]
- IC50 [1]: 430 nM
- residual substrate protein level, IKZF1 [2]: B (B represents a residual substrate protein level of >50%)
- residual substrate protein level, IKZF3 [3]: A (A represents a residual substrate protein level of <50%)
- residual substrate protein level, GSPT1 [4]: B (B represents a residual substrate protein level of >50%)

Compound: CC1(C)CCC(C(=O)N2CC3CCC2CN3Cc2ccc3c(c2)CN(C2CCC(=O)NC2=O)C3=O)=C(c2ccc(Cl)cc2)C1 (stereo not shown) [GT-05662, 3-(5-((5-(4′-chloro-5,5-dimethyl-3,4,5,6-tetrahydro-[1,1′-biphenyl]-2-carbonyl)-2,5-diazabicyclo[2.2.2]octan-2-yl)methyl)-1-oxoisoindolin-2-yl)piperidine-2,6-dione]
- IC50 [1]: 710 nM
- residual substrate protein level, IKZF1 [2]: B (B represents a residual substrate protein level of >50%)
- residual substrate protein level, IKZF3 [3]: A (A represents a residual substrate protein level of <50%)
- residual substrate protein level, GSPT1 [4]: B (B represents a residual substrate protein level of >50%)

Compound: CC1(C)CCC(CN2C[C@@H]3C[C@H]2CN3Cc2ccc3c(c2)CN(C2CCC(=O)NC2=O)C3=O)=C(c2ccc(Cl)cc2)C1 (stereo partly drawn) [GT-03997, 3-(5-(((1S,4S)-5-((4′-chloro-5,5-dimethyl-3,4,5,6-tetrahydro-[1,1′-biphenyl]-2-yl)methyl)-2,5-diazabicyclo[2.2.1]heptan-2-yl)methyl)-1-oxoisoindolin-2-yl)piperidine-2,6-dione]
- IC50 [1]: 770 nM
- residual substrate protein level, IKZF1 [2]: A (A represents a residual substrate protein level of <50%)
- residual substrate protein level, IKZF3 [3]: A (A represents a residual substrate protein level of <50%)
- residual substrate protein level, GSPT1 [4]: B (B represents a residual substrate protein level of >50%)

Compound: CC1(C)CCC(CN2CC3CCC2CN3Cc2ccc3c(c2)CN(C2CCC(=O)NC2=O)C3=O)=C(c2ccc(Cl)cc2)C1 (stereo not shown) [GT-04167, 3-(5-((5-((4′-chloro-5,5-dimethyl-3,4,5,6-tetrahydro-[1,1′-biphenyl]-2-yl)methyl)-2,5-diazabicyclo[2.2.2]octan-2-yl)methyl)-1-oxoisoindolin-2-yl)piperidine-2,6-dione]
- IC50 [1]: 660 nM
- residual substrate protein level, IKZF1 [2]: B (B represents a residual substrate protein level of >50%)
- residual substrate protein level, IKZF3 [3]: B (B represents a residual substrate protein level of >50%)
- residual substrate protein level, GSPT1 [4]: B (B represents a residual substrate protein level of >50%)

Compound: CC1(C)CCC(C(=O)N2CCN(Cc3ccc4c(c3)CN(C3CCC(=O)NC3=O)C4=O)C(C(F)(F)F)C2)=C(c2ccc(Cl)cc2)C1 (stereo not shown) [GT-05845, 3-(5-((4-(4′-chloro-5,5-dimethyl-3,4,5,6-tetrahydro-[1,1′-biphenyl]-2-carbonyl)-2-(trifluoromethyl)piperazin-1-yl)methyl)-1-oxoisoindolin-2-yl)piperidine-2,6-dione]
- IC50 [1]: 760 nM
- residual substrate protein level, IKZF1 [2]: B (B represents a residual substrate protein level of >50%)
- residual substrate protein level, IKZF3 [3]: A (A represents a residual substrate protein level of <50%)
- residual substrate protein level, GSPT1 [4]: B (B represents a residual substrate protein level of >50%)

Compound: O=C1CCC(N2Cc3cc(C=C4CN(Cc5ccccc5-c5ccc(Cl)cc5)C4)ccc3C2=O)C(=O)N1 (stereo not shown) [GT-03881, 3-(5-((1-((4′-chloro-[1,1′-biphenyl]-2-yl)methyl)azetidin-3-ylidene)methyl)-1-oxoisoindolin-2-yl)piperidine-2,6-dione]
- IC50 [1]: 480 nM
- residual substrate protein level, IKZF1 [2]: B (B represents a residual substrate protein level of >50%)
- residual substrate protein level, IKZF3 [3]: B (B represents a residual substrate protein level of >50%)
- residual substrate protein level, GSPT1 [4]: A (A represents a residual substrate protein level of <50%)

Compound: CC1(C)CCC(C(=O)N2CC(=Cc3ccc4c(c3)CN(C3CCC(=O)NC3=O)C4=O)C2)=C(c2ccc(Cl)cc2)C1 (stereo not shown) [GT-05420, 3-(5-((1-(4′-chloro-5,5-dimethyl-3,4,5,6-tetrahydro-[1,1′-biphenyl]-2-carbonyl)azetidin-3-ylidene)methyl)-1-oxoisoindolin-2-yl)piperidine-2,6-dione]
- IC50 [1]: 730 nM
- residual substrate protein level, IKZF1 [2]: B (B represents a residual substrate protein level of >50%)
- residual substrate protein level, IKZF3 [3]: B (B represents a residual substrate protein level of >50%)
- residual substrate protein level, GSPT1 [4]: A (A represents a residual substrate protein level of <50%)

Compound: CC1(C)CCC(C(=O)N2CCCN(Cc3ccc4c(c3)CN(C3CCC(=O)NC3=O)C4=O)CC2)=C(c2ccc(Cl)cc2)C1 (stereo not shown) [GT-05680, 3-(5-((4-(4′-chloro-5,5-dimethyl-3,4,5,6-tetrahydro-[1,1′-biphenyl]-2-carbonyl)-1,4-diazepan-1-yl)methyl)-1-oxoisoindolin-2-yl)piperidine-2,6-dione]
- IC50 [1]: 980 nM
- residual substrate protein level, IKZF1 [2]: B (B represents a residual substrate protein level of >50%)
- residual substrate protein level, IKZF3 [3]: A (A represents a residual substrate protein level of <50%)
- residual substrate protein level, GSPT1 [4]: B (B represents a residual substrate protein level of >50%)
